What was measured:
Assay type in all cases: in vivo
[1] = test system: Echinochloa oryzacola Vasing.; assay: Test Example 1: herbicidal activity, application before weed generation in submerged conditions (symbol A); conditions: application herbicide amount 320 g/ha
Method in brief: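 Paddy pre-emergence test. Formulated emulsion, water-diluted to a predetermined rate, is applied to floodwater on sowing day; rice transplanted at 2.5 leaves. Effect read at 3 weeks on a 0–5 herbicidal-ratio scale.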

[2] = test system: transplanted rice plant; assay: Test Example 1: effect on crop, application before weed generation in submerged conditions (symbol a); conditions: application herbicide amount 320 g/ha
Method in brief: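 Alluvial soil pots flooded to 4 cm water, sown with Echinochloa oryzacola, Scirpus juncoides and Monochoria vaginalis, then transplanted with 2.5 leaf stage rice seedlings; pre-emergence application. Greenhouse 25° C. to 30° C.; scored 0–5 by herbicidal ratio 3 weeks after application.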

[3] = test system: Echinochloa crus-galli var. crus-galli; assay: Test Example 3: herbicidal effect by foliage application, Wagner pot (symbol H); conditions: application herbicide amount 320 g/ha
Method in brief: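 Foliar spray of a water-diluted emulsion at a predetermined herbicide amount, applied to 14-day-old plants. Seedlings were raised in flooded alluvial soil (0.1–0.5 cm water) at 25–30 °C in a greenhouse. Injury was rated after 3 weeks against fixed criteria.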

[4] = test system: Setaria viridis; assay: Test Example 4: herbicidal effect by soil treatment (symbol G); conditions: 320 g/ha
Method in brief: (§1)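 Seeds were sown in sterilized diluvial soil, covered with about 1.5 cm of soil, and the soil surface was sprayed with a water-diluted emulsion of the compound at a predetermined rate. Plants grew in a greenhouse at 25° C. to 30° C.; effects were scored visually 3 weeks after application.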

[5] = test system: Lolium multiflorum Lam.; assay: Test Example 4: herbicidal effect by soil treatment (symbol K); conditions: 320 g/ha
Method in brief: as §1

[6] = test system: Amaranthus retroflexus; assay: Test Example 4: herbicidal effect by soil treatment (symbol N); conditions: 320 g/ha
Method in brief: as §1

[7] = test system: Stellaria media; assay: Test Example 4: herbicidal effect by soil treatment (symbol P); conditions: 320 g/ha
Method in brief: as §1

[8] = test system: wheat; assay: Test Example 4: effect on crop by soil treatment (symbol e); conditions: 320 g/ha
Method in brief: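 The test used sterilized diluvial soil. Seed was set down in spots and overlaid with about 1.5 cm of soil before growth in a greenhouse kept at 25° C. to 30° C.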

[9] = test system: Setaria viridis; assay: Test Example 5: herbicidal effect by foliage application, plastic box (symbol G); conditions: 320 g/ha, 3 weeks after application
Method in brief: (§2)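 Sowing in sterilized diluvial soil, 14 days' greenhouse growth at 25° C. to 30° C., then uniform small-sprayer foliar application of aqueous emulsion dilution; plants scored three weeks afterwards.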

[10] = test system: Avena fatua; assay: Test Example 5: herbicidal effect by foliage application, plastic box (symbol I); conditions: 320 g/ha, 3 weeks after application
Method in brief: as §2

[11] = test system: Abutilon theophrasti; assay: Test Example 5: herbicidal effect by foliage application, plastic box (symbol M); conditions: 320 g/ha, 3 weeks after application
Method in brief: as §2

[12] = test system: Amaranthus retroflexus; assay: Test Example 5: herbicidal effect by foliage application, plastic box (symbol N); conditions: 320 g/ha, 3 weeks after application
Method in brief: as §2

[13] = test system: Stellaria media; assay: Test Example 5: herbicidal effect by foliage application, plastic box (symbol P); conditions: 320 g/ha, 3 weeks after application
Method in brief: as §2

[14] = test system: wheat; assay: Test Example 5: effect on crop by foliage application, plastic box (symbol e); conditions: 320 g/ha, 3 weeks after application
Method in brief: (§3)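 Greenhouse test at 25° C. to 30° C. Seeds of crops and weeds were spot-sown in boxes of sterilized diluvial soil under roughly 1.5 cm soil cover, then grown for foliage treatment.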

[15] = test system: beet; assay: Test Example 5: effect on crop by foliage application, plastic box (symbol f); conditions: 320 g/ha, 3 weeks after application
Method in brief: as §3

Compound | Herbicidal effect grade, A: Echinochloa oryzacola Vasing. [1] | Effect grade on crop, a: transplanted rice plant [2] | herbicidal effect on H (Echinochloa crus-galli var. crus-galli), grade 0-5 [3] | G: Setaria viridis, herbicidal effect grade [4] | K: Lolium multiflorum Lam., herbicidal effect grade [5] | N: Amaranthus retroflexus, herbicidal effect grade [6] | P: Stellaria media, herbicidal effect grade [7] | e: wheat, effect grade on crop [8] | G: Setaria viridis, herbicidal effect (criteria 0-5) [9] | I: Avena fatua, herbicidal effect (criteria 0-5) [10] | M: Abutilon theophrasti, herbicidal effect (criteria 0-5) [11] | N: Amaranthus retroflexus, herbicidal effect (criteria 0-5) [12] | P: Stellaria media, herbicidal effect (criteria 0-5) [13] | G: Setaria viridis, herbicidal effect grade [9] | I: Avena fatua, herbicidal effect grade [10] | M: Abutilon theophrasti, herbicidal effect grade [11] | N: Amaranthus retroflexus, herbicidal effect grade [12] | P: Stellaria media, herbicidal effect grade [13] | e: wheat, effect on crop grade [14] | f: beet, effect on crop grade [15] | other results
CON=C(C)CC1CC(OC(=O)c2ccccc2C(F)(F)F)=C(c2c(C)cc(C)cc2C)C1=O (stereo not drawn) [1-154] | 5 (Herbicidal ratio of 90% or more (almost completely withered)) | 5 (Herbicidal ratio of 90% or more (almost completely withered)) | 5 (Herbicidal ratio of 90% or more (almost completely withered)) | 5 (Herbicidal ratio of 90% or more (almost completely withered)) | 5 (Herbicidal ratio of 90% or more (almost completely withered)) | 4 (Herbicidal ratio of 70% or higher and lower than 90%) | 0 (Herbicidal ratio of 5% or lower (almost no effect)) | 3 (Herbicidal ratio of 40% or higher and lower than 70%) | 5 (Herbicidal ratio of 90% or more (almost completely withered)) | 5 (Herbicidal ratio of 90% or more (almost completely withered)) | 4 (Herbicidal ratio of 70% or higher and lower than 90%) | 3 (Herbicidal ratio of 40% or higher and lower than 70%) | 2 (Herbicidal ratio of 20% or higher and lower than 40%) | – | – | – | – | – | – | – | e: wheat, effect on crop (criteria 0-5) [14]: 5 (Herbicidal ratio of 90% or more (almost completely withered)); f: beet, effect on crop (criteria 0-5) [15]: 1 (Herbicidal ratio of 5% or higher and lower than 20%)
CC(=O)C(C(C)=O)C1CC(O)=C(c2c(C)cc(C)cc2C)C1=O (stereo not drawn) [2-002] | 0 (Herbicidal ratio of 5% or lower (almost no effect)) | 0 (Herbicidal ratio of 5% or lower (almost no effect)) | 0 (Herbicidal ratio of 5% or lower (almost no effect)) | 0 (Herbicidal ratio of 5% or lower (almost no effect)) | 0 (Herbicidal ratio of 5% or lower (almost no effect)) | 0 (Herbicidal ratio of 5% or lower (almost no effect)) | 0 (Herbicidal ratio of 5% or lower (almost no effect)) | 0 (Herbicidal ratio of 5% or lower (almost no effect)) | – | – | – | – | – | 4 (Herbicidal ratio of 70% or higher and lower than 90%) | 1 (Herbicidal ratio of 5% or higher and lower than 20%) | 0 (Herbicidal ratio of 5% or lower (almost no effect)) | 0 (Herbicidal ratio of 5% or lower (almost no effect)) | 2 (Herbicidal ratio of 20% or higher and lower than 40%) | 0 (Herbicidal ratio of 5% or lower (almost no effect)) | 0 (Herbicidal ratio of 5% or lower (almost no effect)) | –
CON=C(C)CC1CC(OS(=O)(=O)CC[Si](C)(C)C)=C(c2c(C)cc(C)cc2C)C1=O (stereo not drawn) [1-144] | 5 (Herbicidal ratio of 90% or more (almost completely withered)) | 5 (Herbicidal ratio of 90% or more (almost completely withered)) | 5 (Herbicidal ratio of 90% or more (almost completely withered)) | 5 (Herbicidal ratio of 90% or more (almost completely withered)) | 4 (Herbicidal ratio of 70% or higher and lower than 90%) | 0 (Herbicidal ratio of 5% or lower (almost no effect)) | 0 (Herbicidal ratio of 5% or lower (almost no effect)) | 0 (Herbicidal ratio of 5% or lower (almost no effect)) | 5 (Herbicidal ratio of 90% or more (almost completely withered)) | 5 (Herbicidal ratio of 90% or more (almost completely withered)) | 4 (Herbicidal ratio of 70% or higher and lower than 90%) | 1 (Herbicidal ratio of 5% or higher and lower than 20%) | 2 (Herbicidal ratio of 20% or higher and lower than 40%) | – | – | – | – | – | – | – | e: wheat, effect on crop (criteria 0-5) [14]: 4 (Herbicidal ratio of 70% or higher and lower than 90%); f: beet, effect on crop (criteria 0-5) [15]: 2 (Herbicidal ratio of 20% or higher and lower than 40%)
CON=C(C)CC1CC(OC(=O)c2c(Cl)nn(C)c2Cl)=C(c2c(C)cc(C)cc2C)C1=O (stereo not drawn) [1-160] | 5 (Herbicidal ratio of 90% or more (almost completely withered)) | 5 (Herbicidal ratio of 90% or more (almost completely withered)) | 5 (Herbicidal ratio of 90% or more (almost completely withered)) | 5 (Herbicidal ratio of 90% or more (almost completely withered)) | 5 (Herbicidal ratio of 90% or more (almost completely withered)) | 4 (Herbicidal ratio of 70% or higher and lower than 90%) | 0 (Herbicidal ratio of 5% or lower (almost no effect)) | 2 (Herbicidal ratio of 20% or higher and lower than 40%) | – | – | – | – | – | 5 (Herbicidal ratio of 90% or more (almost completely withered)) | 5 (Herbicidal ratio of 90% or more (almost completely withered)) | 4 (Herbicidal ratio of 70% or higher and lower than 90%) | 0 (Herbicidal ratio of 5% or lower (almost no effect)) | 3 (Herbicidal ratio of 40% or higher and lower than 70%) | 5 (Herbicidal ratio of 90% or more (almost completely withered)) | 5 (Herbicidal ratio of 90% or more (almost completely withered)) | –
COC(=O)C(C(C)=O)C1CC(O)=C(c2c(C)cc(C)cc2C)C1=O (stereo not drawn) [2-003] | 0 (Herbicidal ratio of 5% or lower (almost no effect)) | 0 (Herbicidal ratio of 5% or lower (almost no effect)) | 5 (Herbicidal ratio of 90% or more (almost completely withered)) | 0 (Herbicidal ratio of 5% or lower (almost no effect)) | 5 (Herbicidal ratio of 90% or more (almost completely withered)) | 0 (Herbicidal ratio of 5% or lower (almost no effect)) | 0 (Herbicidal ratio of 5% or lower (almost no effect)) | 0 (Herbicidal ratio of 5% or lower (almost no effect)) | – | – | – | – | – | 5 (Herbicidal ratio of 90% or more (almost completely withered)) | 5 (Herbicidal ratio of 90% or more (almost completely withered)) | 1 (Herbicidal ratio of 5% or higher and lower than 20%) | 0 (Herbicidal ratio of 5% or lower (almost no effect)) | 0 (Herbicidal ratio of 5% or lower (almost no effect)) | 0 (Herbicidal ratio of 5% or lower (almost no effect)) | 0 (Herbicidal ratio of 5% or lower (almost no effect)) | –
